The source made the active and inactive calls.
Key:
Format in all cases: functional
[1] = system: Bacillus subtilis; assay: Antibacterial activity against Bacillus subtilis assessed as inhibition of peptidoglycan synthesis at 100 mg/L after 50 mins by [3H]-N-acetylglucosamine incorporation assay
[2] = system: Bacillus subtilis; assay: Antibacterial activity against Bacillus subtilis assessed as inhibition of plasma membrane lipids synthesis at 100 mg/L after 50 mins by [3H]-sodium acetate incorporation assay
[3] = system: Bacillus subtilis; assay: Antibacterial activity against Bacillus subtilis assessed as inhibition of DNA synthesis at 100 mg/L after 50 mins by [3H]thymidine incorporation assay
[4] = system: Bacillus subtilis; assay: Antibacterial activity against Bacillus subtilis assessed as inhibition of RNA synthesis at 100 mg/L after 50 mins by [3H]-uridine incorporation assay
[5] = system: Bacillus subtilis; assay: Antibacterial activity against Bacillus subtilis assessed as inhibition of protein synthesis at 100 mg/L after 50 mins by [35S]-methionine incorporation assay
[6] = system: Bacillus subtilis; assay: Antibacterial activity against Bacillus subtilis assessed as inhibition of DNA synthesis at 2 mg/L after 50 mins by [3H]thymidine incorporation assay
[7] = system: Bacillus subtilis; assay: Antibacterial activity against Bacillus subtilis assessed as inhibition of plasma membrane lipids synthesis at 2 mg/L after 50 mins by [3H]-sodium acetate incorporation assay
[8] = system: Bacillus subtilis; assay: Antibacterial activity against Bacillus subtilis assessed as inhibition of RNA synthesis at 2 mg/L after 50 mins by [3H]-uridine incorporation assay
[9] = system: Bacillus subtilis; assay: Antibacterial activity against Bacillus subtilis assessed as inhibition of protein synthesis at 2 mg/L after 50 mins by [35S]-methionine incorporation assay
[10] = system: Bacillus subtilis; assay: Antibacterial activity against Bacillus subtilis assessed as inhibition of peptidoglycan synthesis at 2 mg/L after 50 mins by [3H]-N-acetylglucosamine incorporation assay

Measured: inhibition

C/C=C/C/C=C/CCC(=O)[C@H]1O[C@H]1C(N)=O
active: [1] | [2] | [3] | [4] | [5]

CC1(C)S[C@@H]2[C@H](NC(=O)[C@H](N)c3ccccc3)C(=O)N2[C@H]1C(=O)O
active: [6] | [7] | [8] | [9] | [10]

— ChEMBL document CHEMBL4038308, “Lipophosphonoxins II: Design, Synthesis, and Properties of Novel Broad Spectrum Antibacterial Agents” (J Med Chem, 2017)
